Data taken from US6410545B1, “Lipid lowering quinazoline dietary supplement composition” (Parker Hughes Institute, priority 1998, dated 2002).

Assays:
apo e−/− mice [1] = test: In vivo hepatic VLDL-TG production using Triton WR1339 in apo e−/− mice
Protocol: C57B⅙ and apoE-deficient mice were treated with intraperitoneal injections of 50 μl vehicle or 40 mg/kg WHI-P164 in 50 μl vehicle for 7 consecutive days, followed by a 36 hour fast to shut down intestinal chylomicron synthesis. […] Blood samples were taken at 0 and 4 hours after Triton WR1339 injection and plasma TG levels were measured enzymatically using a commercially available enzymatic kit (Sigma Chemical Co.). Alternatively, food was returned to the mice after a 36 hour fast and blood samples were collected at 0, 1, 3, 6, and 9 hours after returning the food. Accumulation of chylomicron-TG was determined as accumulation of plasma TG.
To determine if WHI-P164 prevent hepatic TG accumulation by relieving 9 block in VLDL-TG secretion or by inhibiting upstream TG synthesis, in vivo hepatic VLDL-TG synthesis was analyzed. Synthesis was determined by following the accumulation of VLDL-TG after shutting down VLDL catabolism with Triton WR1339 injection and intestinal chylomicron synthesis with a 36 hours fast.
C57B⅙ and apoE-deficient mice were treated with intra peritoneal injections of vehicle or 40 mg/kg WHI-P164 (in 50 μl vehicle) for 7 consecutive days, followed by a 36 hour fast to shut down intestinal chylomicron synthesis. […] Blood samples (50 μl) were taken at 0 and 4 hours after Triton WR1339 injection and plasma TG was measured enzymatically using a commercially available enzymatic kit (Sigma Chemical Co.), as previously reported (Kuipers, supra).

apo e−/− mice [2] = test: Hepatic and plasma lipids (Oil Red O staining, tissue lipid extraction) in apo e−/− mice on Western diet; assay type: in vivo; details: 40 mg/kg/day for 1 week
Protocol: Serum total cholesterol was measured enzymatically using the cholesterol kit from Sigma Chemical Co. (St. Louis, Mo., USA). For liver tissue lipid measurements, lipids were extracted from homogenized hepatic tissues using the method of Bligh and Dyer (Bligh, et al., Can. J. Biochem. Phys. 1959, 37:911-917). One gram of liver tissue was homogenized in 1 ml of distilled water and extracted with 4 ml of chloroform/methanol (1:1, v/v). The chloroform phase containing the lipids was evaporated under a stream of nitrogen, the lipids dissolved in 100 μL of isopropanol, and subjected to cholesterol determination as described above. Triglyceride (TG) contents were determined using the TG kit from Sigma Chemical Co.
At the end of the experiment, the animals were sacrificed and the harvested tissues were fixed in 10% phosphate buffered formalin overnight, embedded, sectioned, and stained by hematoxylin and eosin (H&E). The stained sections were examined for pathological changes. For Oil Red O staining, the liver was excised and snap frozen in liquid nitrogen. Five micrometer thick sections were obtained using the LeicaCM1800 cryostat (Heerbrugg, Switzerland), stained in 0.5% Oil Red O in propylene glycol for 1 hour, destained in 85% propylene glycol for 1 minute, rinsed twice in distilled water, counterstained in Mayer's hematoxylin for a few seconds, rinsed twice in distilled water, and mounted in Crystalmount (Biomedia Corp., Foster City, Calif.). The Oil Red O stainable material at 400 X magnification was quantitated using the ImagePro plus program (Media Cybernetics, Silver Spring, Md., USA) in conjunction with a 3CCD camera (DAGE-MTI Inc., Michigan City, USA).
apo e^−/− mice accumulate large amounts of TG-rich lipid droplets in their livers, due a blocked VLDL-TG secretion (Kuipers et al., 1997, J. Clin. Invest. 100:2915-2922). […] When tissue lipids were measured, there was a 22% reduction in hepatic cholesterol 39% reduction in hepatic triglycerides.

COc1cc2ncnc(C(=O)c3cccc(Br)c3)c2cc1OC [WHI-P164, 4-(3′-bromobenzoyl)-6,7-dimethoxyquinazoline]
Triglyceride, Pre-Triton WR 1339 (apo e−/− mice [1]; apo e−/− (C57B1/6), 40 mg/kg i.p. 7 days, 36 hour fast): 155 ± 14 (n = 10) mg/dL
Triglyceride, Post-Triton WR 1339 (apo e−/− mice [1]; apo e−/− (C57B1/6), 40 mg/kg i.p. 7 days, 36 hour fast, 4 hours after Triton WR1339): 465 ± 46 (n = 8) mg/dL
Accumulation of VLDL-TG after Triton WR1339 treatment (apo e−/− mice [1]; apo e−/− mice, 40 mg/kg, versus vehicle): significantly less accumulation of VLDL-TG than vehicle-treated control mice
Oil Red O stainable lipid material in liver (apo e−/− mice [2]): 658±256 red pixels/field
hepatic cholesterol (apo e−/− mice [2]): 51.4 ± 4.4 mg/g wet wt
hepatic triglycerides (apo e−/− mice [2]): 211.6 ± 27 mg/g wet wt
plasma FFA (apo e−/− mice [2]): 3.6 ± 0.3 mM
plasma TG (apo e−/− mice [2]): 165 ± 19 mg/dL
Reduction in hepatic cholesterol (apo e−/− mice [2]; versus vehicle): 22%
Reduction in hepatic triglycerides (apo e−/− mice [2]; versus vehicle): 39%
Reduction of liver lipid material (image analysis) (apo e−/− mice [2]; versus vehicle): 75%
